Experimental data taken from patent publication US20160002204A1 (Board of Regents, The University of Texas System, priority 2014, published 2016).

Tests used:
[1] = molecular target: T1, GLS1 (purified recombinant human GAC) (Homo sapiens, UniProt O94925); test: GLS1 enzymatic activity assay (dual-coupled, Amplex UltraRed/resorufin); assay type: biochemical
T1 sequence (O94925 55-598 isoform O94925-3 limits assumed): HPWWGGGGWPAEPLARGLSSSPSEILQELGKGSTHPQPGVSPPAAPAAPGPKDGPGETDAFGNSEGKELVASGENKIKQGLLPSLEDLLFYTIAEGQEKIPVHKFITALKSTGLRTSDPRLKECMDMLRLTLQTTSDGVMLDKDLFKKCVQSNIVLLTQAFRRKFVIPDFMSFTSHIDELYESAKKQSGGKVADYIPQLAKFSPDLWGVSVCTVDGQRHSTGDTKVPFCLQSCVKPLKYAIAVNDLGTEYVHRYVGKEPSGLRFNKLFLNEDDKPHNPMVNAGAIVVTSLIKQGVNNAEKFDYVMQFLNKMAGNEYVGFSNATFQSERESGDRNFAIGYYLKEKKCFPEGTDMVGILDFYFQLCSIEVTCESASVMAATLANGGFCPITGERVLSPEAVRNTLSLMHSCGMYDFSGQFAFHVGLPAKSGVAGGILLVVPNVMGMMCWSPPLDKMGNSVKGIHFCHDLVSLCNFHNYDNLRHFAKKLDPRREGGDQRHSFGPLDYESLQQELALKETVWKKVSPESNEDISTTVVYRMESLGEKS
Method in brief: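 GAC activity measured by coupling glutamate to glutamate oxidase and HRP, generating resorufin from Amplex UltraRed. Enzyme (2 nM) preincubated with 50 mM potassium phosphate 10 min at room temperature, then inhibitor 10 min; 1 mM glutamine substrate, 1% DMSO. Fluorescence 530/590 nm, kinetic or 20-min endpoint; IC50 from four-parameter logistic fit.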

A549 cells = test: A549 proliferation (viability) assay, Cell Titer Fluor, 72 hours; assay type: cell-based; conditions: Homo sapiens
Method in brief: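 A549 cells seeded at 1000 cells/well, left 24 h, then exposed to compound for 72 h at 37 °C, 5% CO2, final DMSO 0.5% (v/v). Viability read by Cell Titer Fluor fluorescence; EC50 from four-parameter logistic fit.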

Compound	IC50 [1]	EC50 (A549 cells)
O=C(NCc1cc(C(F)(F)F)ccn1)c1cn(CC(F)CCn2ccc(COc3cccc(F)c3)cc2=O)nn1 (stereo not shown) [Example 482, 1-{2-fluoro-4-[4-(3-fluorophenoxymethyl)-2-oxo-1,2-dihydropyridin-1-yl]butyl}-N-{[4-(trifluoromethyl)pyridin-2-yl]methyl}-1H-1,2,3-triazole-4-carboxamide]	< 100 nM	100 to 500 nM
O=C(Cc1cccc(OC(F)(F)F)c1)Nc1ccc(CCCCn2ccc(NC(=O)NCc3ccccc3)nc2=O)nn1 [Example 23, N-(6-(4-(4-(3-benzylureido)-2-oxopyrimidin-1(2H)-yl)butyl)pyridazin-3-yl)-2-(3-(trifluoromethoxy)phenyl)acetamide]	< 100 nM	500 to 5000 nM
O=C(Nc1ccn(CCC(F)Cn2cc(C(=O)NCc3cc(OC(F)(F)F)ccc3F)nn2)c(=O)c1F)C(=O)N1CCCCC1 (stereo not shown) [Example 422, 11-(2-fluoro-4-(3-fluoro-2-oxo-4-(2-oxo-2-(piperidin-1-yl)acetamido)pyridin-1(2H)-yl)butyl)-N-(2-fluoro-5-(trifluoromethoxy)benzyl)-1H-1,2,3-triazole-4-carboxamide]	< 100 nM	< 100 nM
C[C@H](C(=O)Nc1ccn(CCC(F)Cn2cc(C(=O)NCc3cncc(C(F)(F)F)c3)nn2)c(=O)c1F)c1ccccc1 (stereo partly shown) [Example 349]	< 100 nM	< 100 nM
O=C(Nc1ccn(CCCCc2nnc(C(=O)NCc3ccccc3)s2)c(=O)n1)OCc1ccccc1 [Example 122, benzyl N-(1-{4-[5-(benzylcarbamoyl)-1,3,4-thiadiazol-2-yl]butyl}-2-oxo-1,2-dihydropyrimidin-4-yl)carbamate]	100 to 500 nM	100 to 500 nM
O=C(Cc1ccccc1)Nc1ccn(CCCCc2nnc(C(=O)NCc3ncccc3F)s2)c(=O)c1 [Example 453, N-[(3-fluoropyridin-2-yl)methyl]-5-{4-[2-oxo-4-(2-phenylacetamido)-1,2-dihydropyridin-1-yl]butyl}-1,3,4-thiadiazole-2-carboxamide]	100 to 500 nM	500 to 5000 nM
Cn1ccnc1CC(=O)Nc1ccn(CCC(F)Cn2cc(C(=O)NCc3cccc(OC(F)(F)F)c3)nn2)c(=O)c1 (stereo not shown) [Example 189, 1-(2-fluoro-4-{4-[2-(1-methyl-1H-imidazol-2-yl)acetamido]-2-oxo-1,2-dihydropyridin-1-yl}butyl)-N-{[3-(trifluoromethoxy)phenyl]methyl}-1H-1,2,3-triazole-4-carboxamide]	100 to 500 nM	> 5000 nM
O=C(Cc1cccnc1Cl)Nc1ccn(CCC(F)Cn2cc(C(=O)NCc3cccc(OC(F)(F)F)c3)nn2)c(=O)c1 (stereo not shown) [Example 236, 1-(4-{4-[2-(2-chloropyridin-3-yl)acetamido]-2-oxo-1,2-dihydropyridin-1-yl}-2-fluorobutyl)-N-{[3-(trifluoromethoxy)phenyl]methyl}-1H-1,2,3-triazole-4-carboxamide]	< 100 nM	500 to 5000 nM
COc1ccc(CNC(=O)c2ccn(CCCCn3cc(C(=O)NCc4cccc(OC(F)(F)F)c4)nn3)c(=O)c2)c(OC)c1 [Example 61, N-[(2,4-dimethoxyphenyl)methyl]-2-oxo-1-{4-[4-({[3-(trifluoro-methoxy)phenyl]methyl}carbamoyl)-1H-1,2,3-triazol-1-yl]butyl}-1,2-dihydropyridine-4-carboxamide]	100 to 500 nM	500 to 5000 nM
O=C(CC1CCCC1)Nc1ccn(CCCCn2cc(C(=O)NCc3cccc(C(F)(F)F)c3)nn2)c(=O)c1 [Example 153, 1-{4-[4-(2-cyclopentylacetamido)-2-oxo-1,2-dihydropyridin-1-yl]butyl}-N-{[3-(trifluoromethyl)phenyl]methyl}-1H-1,2,3-triazole-4-carboxamide]	< 100 nM	< 100 nM
O=C(Cc1ccccc1)Nc1ccn(CCCCc2nnc(C(=O)NCc3ccccn3)s2)c(=O)c1 [Example 445, 5-{4-[2-oxo-4-(2-phenylacetamido)-1,2-dihydropyridin-1-yl]butyl}-N-(pyridin-2-ylmethyl)-1,3,4-thiadiazole-2-carboxamide]	100 to 500 nM	500 to 5000 nM
